Assay results: patent US11845726B2
Where “and” joins values, the source holds several entries; their conditions need not be identical. Equal values may be shown once. Entries after “also recorded” stand apart in the source; their conditions may differ.

What was measured:
5-HT2A receptor [1] = molecular target: 5-HT2A receptor (Homo sapiens, UniProt P28223); assay: [3H]ketanserin competition binding assay (SPA); conditions: for 5-HT2A competition binding: control ligands, [3H]ketanserin competition
Chain of 5-HT2A receptor (Homo sapiens, UniProt P28223) (P28223 whole entry): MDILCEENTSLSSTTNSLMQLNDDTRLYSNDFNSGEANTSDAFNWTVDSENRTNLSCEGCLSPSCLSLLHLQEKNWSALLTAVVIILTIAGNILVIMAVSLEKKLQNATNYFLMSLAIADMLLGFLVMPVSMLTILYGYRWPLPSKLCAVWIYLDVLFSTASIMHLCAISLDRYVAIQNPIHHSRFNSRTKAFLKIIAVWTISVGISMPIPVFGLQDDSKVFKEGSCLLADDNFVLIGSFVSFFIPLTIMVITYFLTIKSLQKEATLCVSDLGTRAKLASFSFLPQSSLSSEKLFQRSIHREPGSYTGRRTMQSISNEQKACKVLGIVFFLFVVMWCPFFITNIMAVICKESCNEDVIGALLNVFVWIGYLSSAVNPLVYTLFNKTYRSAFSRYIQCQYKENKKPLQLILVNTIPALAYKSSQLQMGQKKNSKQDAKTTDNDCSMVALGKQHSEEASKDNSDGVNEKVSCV

[2] = Mouse pharmacokinetic (PK) evaluation of drug metabolism to psilocin; conditions: for administered compound in plasma after oral dosing: any dose
in vitro = in vitro ADME, human; conditions: for half-life: human
Description: A fundamental evaluation in drug development is the assessment of absorption, distribution, metabolism, excretion, and pharmacokinetics (ADME/PK) (Eddershaw et al., 2000, Drug Discovery Today 5(9): 409-414). […] Drug stability upon exposure to human liver microsomes and liver S9 cellular fractions is a common in vitro assay to approximate in vivo, liver-based drug metabolism (Richardson et al., 2016 Drug Metabolism Letters 10:83-90). First-pass metabolism is also often approximated in vitro using intestinal microsome and cellular S9 fractions (Hatley et al., 2017, Biopharmaceuticals & Drug Disposition, 38(2):155-160). Further, it is well known that human serum, and particularly circulating serum esterases can contribute to systemic drug metabolism (Williams, F M 1987, Pharmacology and Therapeutics, 34:99-109). Many pharmacological agents are classified as prodrugs, as they undergo metabolic transformation in vivo upon administration to release the active drug compound into the systemic compartment (Zawilska J B, et al. 2013, Pharmacological Reports, 65:1-14). Psilocybin, a serotonergic psychedelic agent, is well known prodrug that is metabolized into the psychoactive product, psilocin (Dinis-Oliveira, R J 2017, Drug Metabolism Reviews, 49(1):84-91). To evaluate the capacity of test molecules to similarly serve as prodrugs of psilocin, time-dependent, metabolic stability assays using human AB serum, human intestinal microsomes (HIM), human intestinal S9 fractions (HIS9), human liver microsomes (HLM), human liver S9 fractions (HLS9), human alkaline phosphatase, and porcine esterase were performed. […] Liquid chromatography coupled mass spectrometry (LC-MS) was employed to track the conversion of the test molecules into psilocin. All intestinal and liver fractions and NADPH RapidStart reagent was purchased from Sekisui/XenoTech. Human AB serum was purchased from Sigma. For intestine and liver metabolism assays, 2.5 μM candidate compounds were incubated in 400 μg/ml of each cellular fraction (HLM, HLS9, HIM, or HIS9) in 50 mM potassium phosphate buffer (pH 7.4) containing 3 mM MgCl2 and 1 mM EDTA supplemented with NADPH RapidStart at 37° C. Samples were taken at the start of the assay, and at every 20 minutes for 2 hours. Time-point samples were precipitated with 1:1 volume of acetonitrile to quench the reaction before centrifugation at 4000×g for 20 minutes. Supernatants were analyzed for the presence of candidate prodrugs (parent molecule) and psilocin (the predicted metabolite) using Orbitrap LC-MS (Thermo Scientific) using previously described methods (Menéndez-Perdomo et al., 2021, J. Mass Spectrom., 56: e4683). The serum assays were carried out in 10% human AB serum in 50 mM potassium phosphate buffer (pH 7.4) containing 3 mM MgCl2 and 1 mM EDTA. Bovine alkaline phosphatase assays were carried out using one unit of purified enzyme in 50 mM potassium phosphate buffer (pH 7.4) containing 3 mM MgCl2 and 1 mM EDTA. Porcine esterase assays were carried out using one unit of purified enzyme in 50 mM potassium phosphate buffer (pH 7.4) containing 3 mM MgCl2 and 1 mM EDTA. Assay concentrations (μM) of both parent ‘prodrug’ molecule and psilocin metabolite, as quantified through LC-MS using routine standard curve procedures, were plotted as functions of assay time (minutes). The metabolism rate (T1/2) was determined from the metabolism curve plot using the one phase decay feature of GraphPad PRISM software (Version 9.2.0). The quantity of parent prodrug at time zero was set as 100%.
Positive controls were first tested to ensure that assays were functioning properly.

5-HT1A receptor = molecular target: T1, 5-HT1A receptor (Homo sapiens, UniProt P08908); assay: cAMP-Glo assay of 5-HT1A receptor modulation in +5-HT1A and -5-HT1A CHO-K1 cells; format: cell-based; conditions: for cAMP levels / 5-HT1A receptor modulation: forskolin-stimulated +5-HT1A vs -5-HT1A cells
T1 construct: host or cells: CHO-K1 co-expressing Ga15
T1 sequence (P08908 1-422): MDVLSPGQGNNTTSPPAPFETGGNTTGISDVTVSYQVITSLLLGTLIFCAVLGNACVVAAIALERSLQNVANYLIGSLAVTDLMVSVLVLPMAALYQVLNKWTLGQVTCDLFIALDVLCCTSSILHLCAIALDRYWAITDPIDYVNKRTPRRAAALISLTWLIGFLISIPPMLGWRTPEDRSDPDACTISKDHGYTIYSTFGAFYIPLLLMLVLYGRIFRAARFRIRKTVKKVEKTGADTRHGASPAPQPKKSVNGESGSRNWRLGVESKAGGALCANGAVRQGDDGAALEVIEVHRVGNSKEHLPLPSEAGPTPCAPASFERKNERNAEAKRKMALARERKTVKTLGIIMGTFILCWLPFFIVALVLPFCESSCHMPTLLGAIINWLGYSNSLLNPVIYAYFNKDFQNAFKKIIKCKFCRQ

5-HT2A receptor [3] = molecular target: T2, 5-HT2A receptor (Mus musculus, UniProt P35363); assay: Drug-induced Head Twitch Response (HTR); format: in vivo, mice; conditions: 1 mg/kg i.p., 15-to-30-minute window after administration
T2 construct: tissue Charles River; host or cells: living C57BL/6-Elite mice (neuronal receptor)
T2 sequence (P35363 whole entry): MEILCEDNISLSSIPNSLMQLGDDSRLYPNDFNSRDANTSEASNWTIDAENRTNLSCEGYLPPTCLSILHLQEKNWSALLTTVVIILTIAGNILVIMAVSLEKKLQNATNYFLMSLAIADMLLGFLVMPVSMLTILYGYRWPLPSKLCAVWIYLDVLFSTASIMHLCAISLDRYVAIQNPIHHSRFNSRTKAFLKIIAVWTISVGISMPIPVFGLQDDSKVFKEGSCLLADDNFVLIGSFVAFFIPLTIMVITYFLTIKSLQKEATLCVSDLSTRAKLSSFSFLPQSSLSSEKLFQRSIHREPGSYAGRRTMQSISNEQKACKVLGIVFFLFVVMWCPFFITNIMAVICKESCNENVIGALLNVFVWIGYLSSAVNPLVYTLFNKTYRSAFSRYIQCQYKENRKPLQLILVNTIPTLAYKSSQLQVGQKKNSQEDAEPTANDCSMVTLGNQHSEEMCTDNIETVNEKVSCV

[4] = In vitro metabolic stability / psilocin release in AB serum; format: in vitro ADME, human
Description: A fundamental evaluation in drug development is the assessment of absorption, distribution, metabolism, excretion, and pharmacokinetics (ADME/PK) (Eddershaw et al., 2000, Drug Discovery Today 5(9): 409-414). […] Drug stability upon exposure to human liver microsomes and liver S9 cellular fractions is a common in vitro assay to approximate in vivo, liver-based drug metabolism (Richardson et al., 2016 Drug Metabolism Letters 10:83-90). First-pass metabolism is also often approximated in vitro using intestinal microsome and cellular S9 fractions (Hatley et al., 2017, Biopharmaceuticals & Drug Disposition, 38(2):155-160). Further, it is well known that human serum, and particularly circulating serum esterases can contribute to systemic drug metabolism (Williams, F M 1987, Pharmacology and Therapeutics, 34:99-109). Many pharmacological agents are classified as prodrugs, as they undergo metabolic transformation in vivo upon administration to release the active drug compound into the systemic compartment (Zawilska J B, et al. 2013, Pharmacological Reports, 65:1-14). Psilocybin, a serotonergic psychedelic agent, is well known prodrug that is metabolized into the psychoactive product, psilocin (Dinis-Oliveira, R J 2017, Drug Metabolism Reviews, 49(1):84-91). […] Supernatants were analyzed for the presence of candidate prodrugs (parent molecule) and psilocin (the predicted metabolite) using Orbitrap LC-MS (Thermo Scientific) using previously described methods (Menéndez-Perdomo et al., 2021, J. Mass Spectrom., 56: e4683). […] Assay concentrations (μM) of both parent ‘prodrug’ molecule and psilocin metabolite, as quantified through LC-MS using routine standard curve procedures, were plotted as functions of assay time (minutes). The metabolism rate (T1/2) was determined from the metabolism curve plot using the one phase decay feature of GraphPad PRISM software (Version 9.2.0). The quantity of parent prodrug at time zero was set as 100%. […]

HepG2 cells = assay: PrestoBlue cell viability assay; conditions: 48 hours
GABAA = format: cell-based
[5] = Stability in enzyme-free control buffer; format: in vitro ADME; conditions: assay buffer without enzymes
Description: A fundamental evaluation in drug development is the assessment of absorption, distribution, metabolism, excretion, and pharmacokinetics (ADME/PK) (Eddershaw et al., 2000, Drug Discovery Today 5(9): 409-414). […] Drug stability upon exposure to human liver microsomes and liver S9 cellular fractions is a common in vitro assay to approximate in vivo, liver-based drug metabolism (Richardson et al., 2016 Drug Metabolism Letters 10:83-90). First-pass metabolism is also often approximated in vitro using intestinal microsome and cellular S9 fractions (Hatley et al., 2017, Biopharmaceuticals & Drug Disposition, 38(2):155-160). […] Supernatants were analyzed for the presence of candidate prodrugs (parent molecule) and psilocin (the predicted metabolite) using Orbitrap LC-MS (Thermo Scientific) using previously described methods (Menéndez-Perdomo et al., 2021, J. Mass Spectrom., 56: e4683). […] Assay concentrations (μM) of both parent ‘prodrug’ molecule and psilocin metabolite, as quantified through LC-MS using routine standard curve procedures, were plotted as functions of assay time (minutes). The metabolism rate (T1/2) was determined from the metabolism curve plot using the one phase decay feature of GraphPad PRISM software (Version 9.2.0). The quantity of parent prodrug at time zero was set as 100%.

[6] = 1 mg/kg i.v., 0.25 h, Mean ± SD
[7] = 1 mg/kg i.v., 1 h, individual mice
[8] = 1 mg/kg i.v., 2 h, individual mice
[9] = 1 mg/kg i.v., 4 h, individual mice
[10] = 1 mg/kg i.v., 6 h, individual mice
[11] = 1 mg/kg i.v., 8 h, individual mice
[12] = 3 mg/kg oral, 24 h, individual mice

Structure (SMILES)	Ki (5-HT2A receptor [1]) [µM]	stability / conversion to psilocin (in vitro; HLM)	stability / conversion to psilocin (in vitro; HLS9)	Head Twitch Response (5-HT2A receptor [3])	stability / conversion to psilocin [4]	CD50 (cytotoxicity) (HepG2 cells) [µM]	administered compound in plasma after i.v. dosing ([2]; 1 mg/kg i.v.)	Plasma concentration of the administered compound itself ([2]; 1 mg/kg i.v., 5 min, Mean ± SD) [ng/mL]	Plasma concentration of the administered compound itself [2, 6] [ng/mL]	Plasma concentration of the administered compound itself ([2]; 1 mg/kg i.v., 0.5 h, Mean ± SD)	Plasma concentration of the administered compound itself ([2]; 1 mg/kg i.v., 1 h, Mean ± SD)	Plasma concentration of the administered compound itself [2, 7]	Plasma concentration of the administered compound itself [2, 8]	Plasma concentration of the administered compound itself [2, 9]	Plasma concentration of the administered compound itself [2, 10]	Plasma concentration of the administered compound itself [2, 11]	Plasma concentration of psilocin [2, 12]	administered compound in plasma after oral dosing [2]	cAMP levels / 5-HT1A receptor modulation (5-HT1A receptor)	5-HT2A competition binding (5-HT2A receptor [1])	further results
CN(C)CCc1c[nH]c2cccc(OC(=O)OCc3ccccc3)c12 [B(II)]	0.277	did not readily dissociate to psilocin	did not readily dissociate to psilocin	elicit head twitching	failed completely to dissociate	65.9															time administered compound resides in plasma post-dosing ([2]; 10 mg/kg oral): up to 4 hours; half-life (in vitro; microsomes, pH 7.4): 3.63 h; half-life (in vitro; s9, pH 7.4): 8.95 h; EC50 at 5-HT1A (5-HT1A receptor; forskolin-stimulated +5-HT1A cells): neither molecule engaged 5-HT1A with sufficient potency to calculate an EC50 value
CN(C)CCc1c[nH]c2cccc(OC(=O)SCc3ccccc3)c12 [E(VI)]	0.13	quickly converted to psilocin	quickly converted to psilocin	Elevated incidences of HTR; also recorded: elevated response was observed in mice treated with E(VI) compared to B(II)	quickly converted to psilocin; also recorded: nearly completely disappears upon in vitro exposure to AB serum	74.5	detectable levels of E(VI)	24.4 ± 30.2	63.3 ± 51.7	7.81 ± 6.17 ng/mL	4.49 (n = 2) ng/mL	3.14 ng/mL and No Peak	0.776 ng/mL and No Peak	BLQ (2×) and No Peak	No Peak (2×) and BLQ	No Peak	No Peak (2×) and BLQ	did not yield any detectable levels of E(VI); also recorded: never detected at any timepoint	mild receptor modulation at higher ligand concentrations		Plasma concentration of the administered compound itself ([2]; 1 mg/kg i.v., 2 h, Mean ± SD): 0.685 (n = 2) ng/mL; AUC0-tlast of the administered compound ([2]; 1 mg/kg i.v., Mean ± SD): 19.7 ± 15.9 ng·h/mL; AUC0-tlast/Dose of the administered compound ([2]; 1 mg/kg i.v., Mean ± SD): 19.7 ± 15.9 kg·ng·h/mL/mg; AUC0-tlast/Dose of the administered compound ([2]; 1 mg/kg i.v., individual mice): 20.4 kg·ng·h/mL/mg and 35.2 kg·ng·h/mL/mg and 3.40 kg·ng·h/mL/mg; administered compound in plasma ([2]; 1 mg/kg oral): neither B(II) nor E(VI) were detected in plasma; Plasma concentration of psilocin ([2]; 1 mg/kg oral, 8 h, individual mice): BLQ; Plasma concentration of psilocin ([2]; 1 mg/kg oral, 24 h, individual mice): No Peak; Plasma concentration of psilocin ([2]; 10 mg/kg oral, 24 h, individual mice): BLQ; IC50 (GABAA; blocker (BL)): 32.2 µM; EC50 (GABAA; opener (OP)): > 100 µM
CN(C)CCc1c[nH]c2cccc(O)c12 [psilocin]																			reduction in cAMP levels	binding	
CN(C)CCc1c[nH]c2cccc(OP(=O)(O)O)c12 [psilocybin]		stable in liver fractions with no conversion to psilocin	stable in liver fractions with no conversion to psilocin		stable in serum with no conversion to psilocin		only detectable in i.v. administered animals	144 ± 167	13.2 ± 12.5	4.28 (n = 2) ng/mL	1.21 (n = 1) ng/mL	No Peak (2×) and 1.21 ng/mL	No Peak	No Peak	No Peak	No Peak (2×) and 2.54 ng/mL	BLQ	not detectable in orally administered animals at any dose			Plasma concentration of the administered compound itself ([2]; 1 mg/kg i.v., 5 min, individual mice): 19.7 ng/mL and 76.8 ng/mL and 334 ng/mL; Plasma concentration of the administered compound itself ([2]; 1 mg/kg i.v., 0.25 h, individual mice): 3.32 ng/mL and 8.95 ng/mL and 27.2 ng/mL; Plasma concentration of the administered compound itself ([2]; 1 mg/kg i.v., 0.5 h, individual mice): No Peak and 2.35 ng/mL and 6.21 ng/mL; Plasma concentration of psilocin ([2]; 1.56 mg/kg oral, 24 h, individual mice): BLQ; stability [5]: stability of psilocybin was confirmed in assay buffer
NCCc1c[nH]c2ccc(O)cc12 [serotonin]																			reduction in cAMP levels		
N[C@@H](Cc1c[nH]c2ccccc12)C(=O)O [tryptophan]																			no reduction in cellular cAMP levels	no binding	
